Laboratory results from ChEMBL document CHEMBL4411268, “Phytosterol and γ-Oryzanol Conjugates: Synthesis and Evaluation of their Antioxidant, Antiproliferative, and Anticholesterol Activities” (2018).

Columns and labels:
[1] = Metal chelating activity assessed as compound-Fe2+ complex formation by measuring chelated ferrous ion at 0.18 umol/ml preincubated with Mohr's salt followed by ferozine addition and measured after 10 mins
[2] = system: Daoy; test: Antiproliferative activity against human DaOY cells assessed as growth inhibition after 72 hrs by MTT assay; type: functional
[3] = system: HeLa; test: Antiproliferative activity against human HeLa cells assessed as growth inhibition after 72 hrs by MTT assay; type: functional
[4] = Antioxidant activity assessed as DPPH radical scavenging activity at 0.18 umol/ml incubated for 30 mins under dark condition relative to control; type: functional
[5] = Antioxidant activity against linoleic acid assessed as inhibition of beta-carotene bleaching at 0.18 umol/ml measured at 15 mins interval for 1 hr; type: functional
[6] = system: MDA-MB-231; test: Antiproliferative activity against human MDA-MB-231 cells assessed as growth inhibition after 72 hrs by MTT assay; type: functional; conditions: MDA-MB-231, 72 h

Row | SMILES | Activity [1] | GI50 [2] | GI50 [3] | inhibition [4] | inhibition [5] | GI50 [6]
1 | O=c1c(O)c(-c2ccc(O)c(O)c2)oc2cc(O)cc(O)c12 | 22% | – | – | – | – | –
2 | C=C(CC[C@@H](C)[C@H]1CC[C@@]2(C)[C@@H]3CC[C@H]4C(C)(C)[C@@H](OC(=O)[C@H](CSSC[C@H](NC(=O)OC(C)(C)C)C(=O)O[C@H]5CC[C@]67C[C@@]68CC[C@]6(C)[C@@H]([C@H](C)CCC(=C)C(C)C)CC[C@@]6(C)[C@@H]8CC[C@H]7C5(C)C)NC(=O)OC(C)(C)C)CC[C@@]45C[C@]35CC[C@]12C)C(C)C | 0% | > 10000 nM | > 10000 nM | 0% | 5% | > 10000 nM
3 | COc1cccc2c1C(=O)c1c(O)c3c(c(O)c1C2=O)C[C@@](O)(C(=O)CO)C[C@@H]3O[C@H]1C[C@H](N)[C@H](O)[C@H](C)O1 [DOXORUBICIN] | – | 16 nM | 93 nM | – | – | 46 nM
